Holding throughout (format): cell-based
Assay [1] deals with endogenous IKZF3 in Jurkat cells (Homo sapiens, UniProt Q96SW2+Q9UKT9). Put plainly: Immunoblotting of endogenous IKZF3. The settings on record: for endogenous IKZF3 level relative to DMSO control (Western blot): 1 μM or 10 μM, untransduced Jurkat cells; for ability to degrade endogenous IKZF3 (Western blot): even at 10 uM. As to the method: Jurkat cells were added to T25 flasks (Falcon) at 2×10^6 cells per flask and were incubated with compounds for 18 hours at 37° C. and 5% CO2. Cells were lysed in buffer containing 9 M urea (Sigma), 75 mM Tris-HCl (Sigma), 0.15 M β-mercaptoethanol (Merck) and 10× diluted protease inhibitor cocktail (Merck). Cells lysates were sonicated for 10 seconds 3 times, centrifuged at 13000 rpm for 10 minutes at 4° C. and the supernatants were transferred into fresh tubes. Protein concentrations were measured using a Pierce BCA Protein Assay Kit (Thermo). Proteins were boiled in Laemmli sample buffer (Bio-Rad) for 5 minutes at 100° C. and separated by SDS-PAGE (7.5% Mini-PROTEAN TGX gels, Bio-Rad) and compared to the PageRuler Prestained Protein Ladder (Thermo). Semi-dry blotting was done on a Trans-Blot Turbo Transfer System (Bio-Rad) with the Trans-Blot Turbo RTA Mini 0.2 μm PVDF Transfer Kit (Bio-Rad) using the default mixed molecular weight mode. Membranes were blocked in 5% non-fat dry milk (Bio Rad) in TBS-T. Primary IKZF3 (D1C1E, Cell Signaling Technology Europe), eGFP (F56-6A1.2.3, Thermo) and vinculin (E1E9V, Cell Signaling Technology Europe and sc-25336, Santa Cruz Biotechnologies) antibodies were diluted 1000×, 500× and 50× respectively in 5% non-fat dry milk in TBS-T. Membranes were incubated with primary antibodies overnight at 4° C., washed with TBS-T 3 times, incubated with HRP conjugated secondary antibodies (Promega) for 1 hour at room temperature, washed with TBS-T 3 times and imaged with Clarity Western ECL substrate (Bio-Rad). Membranes were scanned with a Bio-Rad ChemiDoc XRS+ Imaging System (Bio-Rad) and signal intensities were quantified using Image Lab software (Bio Rad). Band densitometry was assessed, normalized to vinculin bands, and reported as percentage of the DMSO control lane.
A general note: A western blot detects proteins with antibodies after separation by electrophoresis.

The target of assay [2] is wild-type IKZF1/IKZF3 ZF degron sequence (WT) fused to eGFP (Homo sapiens, UniProt Q96SW2+Q9UKT9). Put plainly: GFP degradation flow cytometry assay (GFP:mCherry ratio), WT ZF-eGFP. The conditions noted are these: for percent degradation of WT ZF-GFP at 10 µM: 18 h, Jurkat, flow cytometry concentration curve; for degradation ability against the WT ZF sequence: flow cytometry assay. How it is done: FIG. 2. A. A plasmid containing a ZF degron fused to GFP in the same gene as mCherry. Jurkats that have been lentivirally transduced with this plasmid will express ZF-GFP and mCherry at a consistent ratio. B Addition of an IMID such as pomalidomide will induce GFP degradation via the degron's functionality. C Incubation with an IMID produces a degradation curve.
(§1) Jurkat cells were added to 96 well U-bottom assay plates (Falcon) at 1×10^5 cells per well and treated with compounds for 18 hours at 37° C. and 5% CO2. Cells were stained with 1 μg/mL DAPI (ThermoFisher) and acquired on a Cytoflex S (Beckman Coulter). Data was analysed using FlowJo 10.8.1 (BD).
To test these compounds, we used a flow cytometry assay (FIG. 2) employing an Jurkat cells—an immortalised human blood cell line—that had been stably transduced with a plasmid using a lentiviral vector. This plasmid contained a gene for a 60 amino acid ZF region derived from IKZF3 fused to eGFP, separated from mCherry by an internal ribosomal entry site (IRES). This meant that these cells would express ZF-GFP and mCherry in consistent relative amounts, so under normal conditions the ratio of GFP:mCherry would remain the same regardless of overall expression levels. However, upon incubation with an IMID, ZF-GFP would be selectively degraded, altering this ratio and thus providing an easily measurable proxy for level of ZF degradation.
We carried out three biological replicates of this assay for each IMID analogue with a 0.1% DMSO control and six concentrations of IMID (1 nM, 10 nM, 100 nM, 1 μM, 10 μM and 100 μM) for each compound. This yielded a degradation curve for each compound, from which a pDC50 value could be derived, indicating how potent a degrader each of our compound were relative to thalidomide, lenalidomide and pomalidomide.

Assay [3] has as its target Q147A mutated ZF (ANQS) fused to eGFP (Homo sapiens, UniProt Q96SW2+Q9UKT9, Q147A). Put plainly: GFP degradation flow cytometry assay, Q147A mutant ZF-eGFP. The conditions noted are these: for orthogonality index value (from pDC50 Q147A and pDC50 WT): Q147A vs WT ZF, compounds with Q147A Dmax >=0.4 dismissed, 1080 min; for degradation against Q147A relative to WT: flow cytometry, pDC50 comparison. How it is done:
as §1
To probe the potential for orthogonality in a bump-and-hole context, the same assay was carried out again on all compounds, but this time with a Q147A mutated ZF.
The pDC50 values derived from this screen were used along with the pDC50 values from the WT screen to assign an orthogonality index value to every compound according the following equation: […]
(In general: A flow cytometer gives signals particle by particle.)

Sequence of wild-type IKZF1/IKZF3 ZF degron sequence (WT) fused to eGFP (Q9UKT9 130-189): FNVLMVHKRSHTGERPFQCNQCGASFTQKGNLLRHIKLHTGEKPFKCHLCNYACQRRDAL
Sequence of wild-type IKZF1/IKZF3 ZF degron sequence (WT) fused to eGFP (Q96SW2 whole entry, the tested form may be a part): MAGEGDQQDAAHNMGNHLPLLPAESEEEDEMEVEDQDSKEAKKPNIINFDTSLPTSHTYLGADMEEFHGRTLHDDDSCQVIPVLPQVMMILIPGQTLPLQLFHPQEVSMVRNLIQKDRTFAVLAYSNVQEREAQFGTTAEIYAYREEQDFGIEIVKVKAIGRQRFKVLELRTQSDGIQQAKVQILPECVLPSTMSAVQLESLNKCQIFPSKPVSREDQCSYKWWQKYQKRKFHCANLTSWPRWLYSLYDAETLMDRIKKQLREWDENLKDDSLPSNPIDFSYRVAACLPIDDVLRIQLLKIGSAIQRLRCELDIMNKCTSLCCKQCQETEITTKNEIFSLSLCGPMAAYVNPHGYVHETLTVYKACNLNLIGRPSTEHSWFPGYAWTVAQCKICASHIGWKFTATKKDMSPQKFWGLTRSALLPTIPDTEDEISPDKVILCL
Sequence of endogenous IKZF3 in Jurkat cells (Q9UKT9 whole entry): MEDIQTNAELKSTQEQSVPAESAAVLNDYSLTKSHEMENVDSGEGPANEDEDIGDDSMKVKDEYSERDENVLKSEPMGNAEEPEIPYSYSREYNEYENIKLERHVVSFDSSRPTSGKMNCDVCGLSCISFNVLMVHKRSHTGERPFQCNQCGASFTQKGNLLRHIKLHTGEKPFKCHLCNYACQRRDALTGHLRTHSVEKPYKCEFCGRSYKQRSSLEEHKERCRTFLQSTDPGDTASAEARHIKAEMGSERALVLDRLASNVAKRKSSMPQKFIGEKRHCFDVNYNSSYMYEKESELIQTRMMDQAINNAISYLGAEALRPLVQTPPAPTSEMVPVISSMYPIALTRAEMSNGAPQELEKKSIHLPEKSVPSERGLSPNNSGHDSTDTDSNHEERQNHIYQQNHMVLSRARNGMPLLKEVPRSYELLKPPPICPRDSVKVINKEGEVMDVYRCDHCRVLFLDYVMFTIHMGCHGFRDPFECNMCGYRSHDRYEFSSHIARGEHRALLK
Sequence of endogenous IKZF3 in Jurkat cells (Q96SW2 whole entry): as the sequence (Q96SW2 whole entry, the tested form may be a part) above
Sequence of Q147A mutated ZF (ANQS) fused to eGFP (Q9UKT9 130-189 Q147A): as the sequence (Q9UKT9 130-189) above, with Q18A counted along it
Sequence of Q147A mutated ZF (ANQS) fused to eGFP (Q96SW2 whole entry, the tested form may be a part): as the sequence (Q96SW2 whole entry, the tested form may be a part) above

Regarding `CN1CCN(c2ccc3c(c2)C(=O)N(C2CCC(=O)NC2=O)C3=O)CC1` (stereo not shown) [B08, 2-(2,6-dioxopiperidin-3-yl)-5-(4-methylpiperazin-1-yl)isoindoline-1,3-dione], in assay [1], the “endogenous IKZF3 level relative to DMSO control (Western blot)” value is on record as “unaffected” and the “ability to degrade endogenous IKZF3 (Western blot)” value is on record as “neither A63 nor B08 possess ability to degrade endogenous IKZF3”. In assay [2], the percent degradation of WT ZF-GFP at 10 µM was in the range of 60 to 70% and the “degradation ability against the WT ZF sequence” value was “some degradation ability”. Besides, in assay [3], the “orthogonality index value (from pDC50 Q147A and pDC50 WT)” value is on record as over 10; the “degradation against Q147A relative to WT” value is reported as “improved degradation”.

As to `CC(C)(C)c1ccc2c(c1)C(=O)N(C1CCC(=O)NC1=O)C2=O` (stereo not shown) [A63, 5-(tert-butyl)-2-(2,6-dioxopiperidin-3-yl)isoindoline-1,3-dione], in assay [1], the “endogenous IKZF3 level relative to DMSO control (Western blot)” value was “unaffected” and the “ability to degrade endogenous IKZF3 (Western blot)” value is recorded as “neither A63 nor B08 possess ability to degrade endogenous IKZF3”. In addition, the “level of endogenous IKZF3 (Western blot)” value in assay [1] (10 μM, Jurkats transduced with AEVK-GFP) was “remains unaffected”. Also, in assay [2], the percent degradation of WT ZF-GFP at 10 µM is 60 to 70% and the “degradation ability against the WT ZF sequence” value is reported as “some degradation ability”. In addition, in assay [3], the “orthogonality index value (from pDC50 Q147A and pDC50 WT)” value is recorded as over 10; the “degradation against Q147A relative to WT” value is on record as “improved degradation”.

The values above are taken from patent US20260284208A1, “SYSTEM” (Oxford University Innovation Limited, priority 2023, published 2026).
